Results on 8 compounds are retold here after patent EP0499337A1, “Use of tetra:hydro-thieno-pyrido-indole derivatives for the treatment of skin disorders” (YAMANOUCHI EUROPE B.V., priority 1991, dated 1992).

The subject of data set [1] is PKC from the central nervous system. Briefly: Phosphorylation of synaptosomal plasma membranes: B-50 phosphorylation. Format: biochemical. The settings on record: for phosphorylation of B-50 (% of control): without addition of CaM. The method, then:
Subcellular fractionation and phosphorylation assay were performed according to Kristjansson et al., (1982). […] After a preincubation at 30°C for 5 min, the phosphorylation reaction was started by adding the ATP. The reaction was stopped after 15 sec. All compounds to be tested were present at the start of the preincubation. […]

The test system of the next data set is 50 kDa protein. Kind of data set: Phosphorylation of synaptosomal plasma membranes: CaM-dependent phosphorylation of the 50 kDa protein. The data set is classed as biochemical. The settings on record: in the presence of added CaM. The method, then: Subcellular fractionation and phosphorylation assay were performed according to Kristjansson et al., (1982). […] After a preincubation at 30°C for 5 min, the phosphorylation reaction was started by adding the ATP. The reaction was stopped after 15 sec. All compounds to be tested were present at the start of the preincubation. […] Phosphorylation of B-50 and the 50 kDa protein, which was only phosphorylated after addition of CaM, was measured in the presence of exogenous CaM (3 units/assay) and quantified.

A further data set concerns rat brain synaptosomes. Briefly: Noradrenaline release from permeated synaptosomes. Format: cell-based. Conditions: 100 µM. The method, then: Highly purified synaptosomes were prepared according to Dunkley and Robinson (1987). The synaptosomes were diluted with 3 ml buffer A (123 mM NaCl, 5 mM KCl, 2 mM CaCl₂, […], 1.15 mM NaH₂PO₄, 5.6 mM glucose, 20 mM PIPES pH 6.8, gassed with O₂:CO₂, 95:5) and incubated for 15 min at 37°C. Then 2.5 µCi noradrenalin (NA) was added, incubation was continued for 15 min and the synaptosomes were centrifuged for 20 min at 600 x g. The resulting pellet was washed twice in buffer A without CaCl₂ and resuspended (1 mg protein/ml).
For measurement of NA release, prelabeled synaptosomes were incubated at 37°C in buffer A containing Na₂ATP and EGTA-buffered Ca²⁺ in concentrations as indicated (final volume 120 µl). The release reaction was started by adding synaptosomes (20 µg protein) to the reaction mixture and terminated after 5 min by 30 sec centrifugation at 10,000 x g. The supernatant (90 µl) was collected and counted in a Packard Model 2,000 CA liquid scintillation counter with Picofluor as a scintillation cocktail. NA release was expressed as % of total [³H]-NA incorporated. Total NA incorporation was determined by measuring [³H]-incorporation in 20 µg prelabeled washed synaptosomes.

Data set [2] deals with human polymorphonuclear leukocytes (PMNL). Briefly: ROS generation from PMNL, lucigenin-amplified chemiluminescence. The data set is classed as cell-based. The settings on record: Homo sapiens, PMNL, IC₅₀-values. The protocol:
Human PMNL were isolated from fresh blood (anticoagulated with sodium citrate) by erythrocyte sedimentation with 1% dextran (Pharmacia, Uppsala, Sweden) centrifugation of the resulting supernatant, followed by hypoosmotic lysis to remove red blood cells. Washed cells were adjusted to 2 x 10⁶ cells/ml in PBS containing fetal calf serum (2%; v/v). Test compounds dissolved in DMSO were diluted with the assay buffer to a final DMSO concentration of 0.5% (v/v).
Then the test compounds (100 µl) were added with subsequent recording for another 16 min period. […] Results were expressed as percent of inhibition or stimulation of the controls (mean of two integrals) in a single experiment.

Another data set deals with PMHL. Kind of data set: Nonspecific cytotoxicity, trypane blue exclusion test. Format: cell-based, human. The protocol:
Nonspecific cytotoxicity of the test compounds on PMHL was assessed by […] blue exclusion test.

The subject of data set [3] is HaCaT cells. Kind of data set: Cytotoxicity, LDH release into the culture medium. The settings on record: 48 h after onset of drug exposure. In general terms: Release of lactate dehydrogenase indicates damage to the cell membrane.
Procedure: HaCaT cells were grown as described.
Cytotoxicity was assessed by measurements of the content of intracellular lactate dehydrogenase (LDH) activity released into the culture medium during 48 h after onset of drug exposure. Possible drug induced detachment of the HaCaT cells from the plate was assessed by collection of the medium from the wells and centrifugation (80 x g, 10 min.) The resulting pellet was suspended in 10 µl medium and cells were counted in a haemocytometer.
The subject of data set [4] is TPA-induced ear edema in mice. Kind of data set: Intraperitoneal administration, TPA-induced ear edema in mice. The data set is classed as in vivo. Conditions: intraperitoneally, 30, 10 or 3.3 mg/kg. The protocol: Mice were injected intraperitoneally with 30, 10 or 3.3 mg/kg body weight of the test substances, sphingosine in carboxymethylcellulose (0.5%) and tiflucarbine in physiologic Saline, 10 ml/kg body weight. After 60 minutes the mire were challenged on the left ear with a 0.01 wt% solution of 12-O-tetradecanoylphorbol-13-acetate (TPA) in a 80/20 mixture of acetone/water. At 0, 3, 6 and 24 h after challenge, ear thickness was determined.

Data set [5] has as its system Normal human keratinocytes. Briefly: Cornified envelope formation (keratinocyte differentiation). Format: cell-based. The settings on record: 4 h plus 48 h exposure, increasing concentrations. The method, then:
Normal human keratinocytes were grown to confluence at low calcium concentration in the presence of 5% FCS, 1 µM isoproterenol and 10 ng EGF per ml. They were first exposed for 4 h to increasing concentrations of test compounds and subsequently reincubated for 48 h in medium containing normal calcium concentration and the same additives, test compounds and [³H]-leucine (1 µCi/ml). Thereafter, both spontaneous and ionophore-induced cornified envelope (CE) formation was determined [King et al. (1986) Exp. Cell. Res., 167: 252].

In data set [6] the test system is HaCaT cells. Kind of data set: Keratinocyte morphology, phase contrast microscopy. Conditions: 30 nM, monitored during 72 hours. Format: cell-based, human. The method, then: HaCaT cells were cultured under standard conditions. 24 h after plating (2.5 x 10⁶ cells) the medium was replaced by medium containing the test compounds. During 72 hours cell morphology was frequently monitored using a phase contrast photomicroscope (Olympus IMT-2, Tokyo, Japan).

[7] abbreviates: 16 min, compound added at peak, 16 min after opsonized zymosan, read-out: Peak CL.
Setting [8] is: 30 min preincubation, unstimulated, read-out: Spontaneous CL.
The mark [9] stands for this setting: stimulation with opsonized zymosan after preincubation, read-out: Induced CL.

Read-outs that look alike come from different tables or passages of the source.

In the case of Polymyxin B, the B-50 phosphorylation entry in data set [1] (in the presence of exogenous CaM (3 units/assay)) is recorded as “dose-dependently inhibited”. In addition, the “phosphorylation of B-50 (% of control)” value is given as 95 ± 8 % of control in data set [1] (concentration 0.1 µM), 103 ± 9 % of control in data set [1] (concentration 1 µM), 82 ± 11 % of control in data set [1] (concentration 10 µM) and 18 ± 8 % of control in data set [1] (concentration 100 µM). In addition, the “phosphorylation of the 50 kDa protein” value in the data set with 50 kDa protein is given as “dose-dependently inhibited”. Moreover, the noradrenaline release with rat brain synaptosomes (high (10 µM) Ca²⁺) is 19.4 ± 2.38 % of total [³H]-noradrenaline; in the data set on rat brain synaptosomes (low (10 nM) Ca²⁺) it was 16.5 ± 1.03 % of total [³H]-noradrenaline.
Regarding `NCCCCCCNS(=O)(=O)c1cccc2c(Cl)cccc12` [W-7, N-(6-aminohexyl)-5-chloro-1-naphthalene sulfonamide], the IC50 is 10 µM in data set [2] (setting [7]), 6.3 µM in [2] (setting [8]) and 6.3 µM in [2] (setting [9]). The compound also registered a Trypane blue in the data set on PMHL of 15 µM. Besides, the LDH release in the data set on HaCaT cells [3] worked out at 100 µM.
On to `CCCCCCCCCCCCC/C=C/[C@@H](O)[C@@H](N)CO` [Sphingosine], for which the “ear edema (ear thickness), compared with tiflucarbine” value in data set [4] is given as “more potent”.
Consider `CSc1ccc2c(c1)N(CCC1CCCCN1C)c1ccccc1S2` (stereo not drawn) [Thioridazine], for which the IC50 was found to be 10.6 µM in data set [2] (setting [7]), 2.4 µM in data set [2] (setting [8]) and 6.4 µM in data set [2] (setting [9]).
Take `CN1CCN(CCCN2c3ccccc3Sc3ccc(C(F)(F)F)cc32)CC1` [Trifluoroperazine]: the Trypane blue with PMHL was 100 µM. In addition, the LDH release with HaCaT cells [3] was found to be 30 µM.
For `CC(CN1c2ccccc2Sc2ccccc21)N(C)C` (stereo not drawn) [Promethazine], the IC50 in data set [2] (setting [7]) is 62.3 µM; in data set [2] (setting [8]), 23.6 µM; in [2] (setting [9]), 31.4 µM. This compound yielded a Trypane blue in the data set with PMHL of 100 µM. This compound gave an LDH release in the data set on HaCaT cells [3] of 100 µM.
Consider `CN(C)CCCN1c2ccccc2Sc2ccc(Cl)cc21` [Chlorpromazine], for which the IC50 in data set [2] (setting [7]) was 21.8 µM; in data set [2] (setting [8]), 4.9 µM; in data set [2] (setting [9]), 7.6 µM. The compound further returned a Trypane blue in the data set with PMHL of 30 µM. Besides, the LDH release with HaCaT cells [3] is on record as 30 µM.
Regarding `CN[C@@H]1C[C@H]2O[C@@](C)([C@@H]1OC)n1c3ccccc3c3c4c(c5c6ccccc6n2c5c31)C(=O)NC4` [Staurosporine], in the data set on PMHL, the Trypane blue turned out to be 3 µM. Also, in data set [5], the “spontaneous CE formation” value is “marked effect”. Moreover, in the data set on HaCaT cells [6], the effect on morphology result is listed as “effects on morphology”. In the data set with HaCaT cells [3], the LDH release came out at 10 µM.
